Measurements published in PubChem BioAssay (NCI).
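These data come from cells grown in 96-well plates and exposed to compound for 48 hours at five concentrations. TGI is the concentration that stops growth completely.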

Assays:
Assay in all cases: NCI tumour cell line growth inhibition, 48 h
HCT-15 colon = test system: HCT-15 colon
TK-10 renal = test system: TK-10 renal
HCT-116 colon = test system: HCT-116 colon
RPMI-8226 leukemia = test system: RPMI-8226 leukemia
BT-549 breast = test system: BT-549 breast
CCRF-CEM leukemia = test system: CCRF-CEM leukemia
UACC-62 melanoma = test system: UACC-62 melanoma
SR leukemia = test system: SR leukemia
SN12C renal = test system: SN12C renal
SF-539 CNS = test system: SF-539 CNS
MALME-3M melanoma = test system: MALME-3M melanoma
LOX IMVI melanoma = test system: LOX IMVI melanoma
MDA-MB-231 breast = test system: MDA-MB-231 breast
SK-OV-3 ovarian = test system: SK-OV-3 ovarian
OVCAR-4 ovarian = test system: OVCAR-4 ovarian
HS 578T breast = test system: HS 578T breast
OVCAR-8 ovarian = test system: OVCAR-8 ovarian
MDA-N = test system: MDA-N
MCF7 breast = test system: MCF7 breast
M14 melanoma = test system: M14 melanoma
NCI-H460 lung = test system: NCI-H460 lung
UO-31 renal = test system: UO-31 renal
786-0 renal = test system: 786-0 renal
UACC-257 melanoma = test system: UACC-257 melanoma
ACHN renal = test system: ACHN renal
NCI-H522 lung = test system: NCI-H522 lung
SW-620 colon = test system: SW-620 colon
K-562 leukemia = test system: K-562 leukemia
SK-MEL-2 melanoma = test system: SK-MEL-2 melanoma
U251 CNS = test system: U251 CNS
EKVX NSCLC = test system: EKVX NSCLC
SK-MEL-5 melanoma = test system: SK-MEL-5 melanoma
RXF 393 renal = test system: RXF 393 renal
T-47D breast = test system: T-47D breast
HCC-2998 colon = test system: HCC-2998 colon
SF-268 CNS = test system: SF-268 CNS
NCI-H23 lung = test system: NCI-H23 lung
COLO 205 colon = test system: COLO 205 colon
KM12 colon = test system: KM12 colon
HOP-62 NSCLC = test system: HOP-62 NSCLC
HL-60(TB) leukemia = test system: HL-60(TB) leukemia
HT29 colon = test system: HT29 colon
HOP-92 NSCLC = test system: HOP-92 NSCLC
CAKI-1 renal = test system: CAKI-1 renal
MOLT-4 leukemia = test system: MOLT-4 leukemia
SK-MEL-28 melanoma = test system: SK-MEL-28 melanoma
SF-295 CNS = test system: SF-295 CNS
MDA-MB-435 = test system: MDA-MB-435
A549 NSCLC = test system: A549 NSCLC
OVCAR-5 ovarian = test system: OVCAR-5 ovarian
OVCAR-3 ovarian = test system: OVCAR-3 ovarian
A498 renal = test system: A498 renal
IGROV1 ovarian = test system: IGROV1 ovarian
SNB-19 CNS = test system: SNB-19 CNS
PC-3 prostate = test system: PC-3 prostate
DU-145 prostate = test system: DU-145 prostate
NCI/ADR-RES ovarian = test system: NCI/ADR-RES ovarian
NCI-H226 lung = test system: NCI-H226 lung
SNB-75 CNS = test system: SNB-75 CNS

Measured: TGI

CCOC(=O)Nc1ccc(S(=O)(=O)Nn2cnnc2)cc1
65.1 µM: SF-539 CNS
74.5 µM: HCC-2998 colon
73.4 µM: OVCAR-4 ovarian
77.4 µM: OVCAR-3 ovarian
59.9 µM: HT29 colon
96.2 µM: A498 renal
49.7 µM: MDA-MB-435
73.9 µM: MDA-N
77.9 µM: K-562 leukemia
94.3 µM: RPMI-8226 leukemia
not listed: NCI-H226 lung | SNB-75 CNS
> 100 µM: all other assays above

O=C(O)/C(Cc1ccnc2ccccc12)=N\O
not listed: HCC-2998 colon
> 100 µM: all other assays above
